Measured values as given in article PMC6894869, “Fragment-based design of small molecule PCSK9 inhibitors using simulated annealing of chemical potential simulations” (PLoS ONE, 2019).

Target: PCSK9 (Homo sapiens, UniProt Q8NBP7)
Experiment: SPR competition assay against the EGFa domain of LDLR
Type: binding

IC50: 103 µM
SMILES: COc1ccc2nc(N)[nH]c2c1C#N [Fig 12A, cyano-benzimidazole derivative]
